In one test the target is Protein kinase C (PKC). The experiment in a line: Tested for inhibition of protein kinase C from rat brain.
A short description of test [1]: Tested for inhibition of catalytic subunit of cAMP-dependent protein kinase from bovine heart.
Test [2] has as its target T1, cGMP-dependent protein kinase 1 (Bos taurus, UniProt P00516).
T1 sequence (P00516 whole entry): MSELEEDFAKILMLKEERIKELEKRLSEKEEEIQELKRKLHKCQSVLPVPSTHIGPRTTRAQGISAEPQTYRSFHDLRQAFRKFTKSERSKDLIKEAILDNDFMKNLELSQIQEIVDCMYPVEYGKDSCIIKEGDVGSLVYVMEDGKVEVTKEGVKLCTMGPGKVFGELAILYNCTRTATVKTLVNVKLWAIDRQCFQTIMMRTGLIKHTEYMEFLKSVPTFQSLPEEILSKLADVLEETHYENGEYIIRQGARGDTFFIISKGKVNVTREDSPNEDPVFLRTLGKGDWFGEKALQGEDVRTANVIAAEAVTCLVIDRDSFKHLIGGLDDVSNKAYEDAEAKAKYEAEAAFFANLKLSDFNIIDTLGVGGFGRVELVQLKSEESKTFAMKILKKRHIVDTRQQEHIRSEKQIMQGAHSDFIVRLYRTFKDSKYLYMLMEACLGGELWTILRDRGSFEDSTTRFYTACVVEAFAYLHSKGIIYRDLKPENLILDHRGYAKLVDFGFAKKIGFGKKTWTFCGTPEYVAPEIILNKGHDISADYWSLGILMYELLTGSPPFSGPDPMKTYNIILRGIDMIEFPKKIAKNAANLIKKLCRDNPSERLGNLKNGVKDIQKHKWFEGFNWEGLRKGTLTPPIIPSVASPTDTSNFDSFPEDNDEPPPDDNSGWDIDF
Put plainly: Tested for inhibition of cGMP-dependent protein kinase from bovine lung.

The target in test [3] is Tyrosine-protein kinase Blk (Mus musculus, UniProt P16277). Put plainly: Tested for inhibition of general tyrosine-specific protein kinase activity from murine B cell lysate. In kind it is cell-based.
Chain of Tyrosine-protein kinase Blk (P16277 whole entry): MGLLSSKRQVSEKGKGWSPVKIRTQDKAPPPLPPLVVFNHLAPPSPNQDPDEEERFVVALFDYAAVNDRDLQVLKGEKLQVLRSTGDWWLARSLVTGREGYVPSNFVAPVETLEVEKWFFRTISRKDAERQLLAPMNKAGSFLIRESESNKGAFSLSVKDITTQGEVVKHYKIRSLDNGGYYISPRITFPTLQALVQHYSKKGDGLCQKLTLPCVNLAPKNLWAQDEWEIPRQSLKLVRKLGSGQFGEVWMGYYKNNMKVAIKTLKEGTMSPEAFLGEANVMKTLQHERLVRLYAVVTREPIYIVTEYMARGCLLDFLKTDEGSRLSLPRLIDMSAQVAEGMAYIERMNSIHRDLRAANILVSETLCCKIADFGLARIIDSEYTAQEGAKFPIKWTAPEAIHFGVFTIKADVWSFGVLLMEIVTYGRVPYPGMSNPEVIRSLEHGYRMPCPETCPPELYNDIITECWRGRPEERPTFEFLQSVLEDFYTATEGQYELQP

In the case of `Cn1c2ccccc2c2c3c(c4c5ccccc5n(CCC#N)c4c21)CNC3=O` [GO-6976], the IC50 at Protein kinase C (PKC) (read-out: IC50) is 0.02 µM; in test [1] it was more than 100 µM.
As for `CN(C)CCCn1c2ccccc2c2c3c(c4c5ccccc5n(C)c4c21)C(=O)NC3`, the results for the IC50 (at Protein kinase C (PKC); in test [2]; in test [1]) were 0.045 µM, 0.87 µM and 9.9 µM, respectively.
As for `COc1ccc2c(c1)c1c3c(c4c5ccccc5n(C)c4c1n2CCCC#N)C(=O)NC3=O`, the figures for the IC50 (against Protein kinase C (PKC); in test [2]; in test [1]) were 0.005 µM, 1 µM and 0.2 µM, respectively.
Regarding `COc1ccc2[nH]c3c(c4c(c5c6cc(OC)ccc6n(CCCN(C)C)c35)CNC4=O)c2c1`, the IC50 on Protein kinase C (PKC) turned out to be 0.55 µM.
On the same count and under the same terms, with `COc1ccc2c(c1)c1c3c(c4c5ccccc5n(CCC#N)c4c1n2C)C(=O)NC3=O` the figure was 0.016 µM.
Molecule `CN(C)CCCn1c2ccc(O)cc2c2c3c(c4c5cc(O)ccc5[nH]c4c21)C(=O)NC3` registered an IC50 against Protein kinase C (PKC) of 0.016 µM.
For `COc1ccc2c(c1)c1c3c(c4c5cc(OC)ccc5n(CCC#N)c4c1n2C)C(=O)NC3=O`, the IC50 at Protein kinase C (PKC) was 0.006 µM.
In the case of `Cn1c2ccc(O)cc2c2c3c(c4c5cc(O)ccc5n(CCC#N)c4c21)CNC3=O`, the IC50 against Protein kinase C (PKC) worked out at 0.009 µM.
Consider `Cn1c2ccccc2c2c3c(c4c5ccccc5n(CCC#N)c4c21)C(=O)NC3=O`, for which the IC50 is 0.038 µM at Protein kinase C (PKC), 7.2 µM in test [2] and more than 30 µM in test [1].
Turning to `COc1ccc2c(c1)c1c3c(c4c5ccccc5n(C)c4c1n2CC(O)CN(C)C)C(=O)NC3` (centres undefined), the IC50 is 0.086 µM against Protein kinase C (PKC), more than 10 µM in test [3], 23 µM in test [2] and 15 µM in test [1].
Turning to `CN(C)CC(O)Cn1c2ccccc2c2c3c(c4c5ccccc5n(C)c4c21)C(=O)NC3` (centres undefined), the IC50 on Protein kinase C (PKC) was 0.03 µM; in test [3], more than 100 µM; in test [2], 9.4 µM; in test [1], 24 µM.
In the same order, the values of `COc1ccc2c(c1)c1c3c(c4c5ccccc5n(C)c4c1n2CCC#N)C(=O)NC3=O` are 0.002 µM, more than 10 µM, more than 3 µM and 0.4 µM.
For the molecule `COc1ccc2c(c1)c1c3c(c4c5cc(OC)ccc5n(CCC#N)c4c1n2C)CNC3=O`, the IC50 against Protein kinase C (PKC) was 0.056 µM; in test [3], more than 10 µM; in test [2], 2 µM; in test [1], 45 µM.
Consider `Cn1c2ccccc2c2c3c(c4c5ccccc5n(CCCN)c4c21)CNC3=O`, for which the IC50 stood at 0.032 µM against Protein kinase C (PKC), 0.22 µM in test [2] and 0.75 µM in test [1].
In the same order, the values of `CN(C)CCCn1c2ccccc2c2c3c(c4c5ccccc5[nH]c4c21)C(=O)NC3` are 0.23 µM, 0.42 µM and more than 10 µM.
`COc1ccc2c(c1)c1c3c(c4c5ccccc5n(C)c4c1n2CC(O)CN(C)C)C(=O)NC3=O` (centres undefined): the IC50 stood at 0.004 µM against Protein kinase C (PKC), 4.8 µM in test [2] and 0.51 µM in test [1].
In the same order, the values of `CN(C)CC(O)Cn1c2ccccc2c2c3c(c4c5ccccc5n(C)c4c21)C(=O)NC3=O` (centres undefined) are 0.021 µM, 2.1 µM and 6.3 µM.

The record behind these values is ChEMBL document CHEMBL1128140, “Novel indolocarbazole protein kinase c inhibitors with improved biochemical and physicochemical properties” (Bioorg Med Chem Lett, 1995).
